This note sets out measurements from patent publication EP0489877B1, “ANTIATHEROSCLEROTIC AND ANTITHROMBOTIC 2-AMINO-6-PHENYL-4H-PYRAN-4-ONES” (THE UPJOHN COMPANY, priority 1990, dated 1992).

The subject of assay [1] is ADP induced platelet aggregation. The assay can be described thus: Inhibition of ADP-induced platelet aggregation (procedure of Born and Cross). The format is cell-based. As to conditions: for inhibition at 10 µg/mL: read-out: Inhibition of Platelet Aggregation 10 ug/ml; for inhibition at 30 µg/mL: read-out: Inhibition of Platelet Aggregation 30 ug/ml. Here is the method: Most compounds of Formula I are active as inhibitors of platelet aggregation as shown in Table 1 by the test procedure described in Born, G.R., Cross M.J., J. Physiol., 168, p. 178 (1963).
Also, reported is the percent inhibition of platelet aggregation at 10ug/ml and 30 ug/ml concentrations.

A further assay concerns fibroblasts. The assay is described as follows: Antiproliferative assay (inhibition of cell proliferation, procedure of Pledger et al.). The format is cell-based. As to conditions: for EC50: Fibroblast; for Antiproliferative Assay Data Inhibition (%): percent inhibition at the maximum concentration tested. An excerpt:
The compounds of Formula I are active as inhibitors of cell proliferation as shown in Table 1 by the test procedure described in Pledger W.J., Stiles C.D., Antniades H.N., Scher C.D., (Proc. Natl. Acad. Sci (USA) (1977). In addition, various compounds of Formula I are also inhibitors of ADP induced platelet aggregation and are useful in the prevention or treatment of thrombotic diseases and related complications by, for example, inhibition or reversal of platelet aggregation, or platelet adhesion or blood coagulation. […]

On to `O=c1cc(-c2ccc(N3CCCC3)cc2)oc(N2CCOCC2)c1` [Compound 23, 2-(4-Morpholinyl)-6-4-(1-pyrrolidinyl)phenyl-4H-pyran-4-one], for which, in assay [1], the inhibition at 10 µg/mL is 20% and the inhibition at 30 µg/mL is 50%. In the assay on fibroblasts, this compound came in with an EC50 of 0.25 µM.

For `O=c1cc(-c2ccc(CN3CCCC3)cc2)oc(N2CCOCC2)c1` [Compound 19, 2-(4-morpholinyl)-6-(4-(1-pyrrolidinylmethyl)phenyl)-4H-pyran-4-one], in assay [1], the inhibition at 10 µg/mL was 5% and the inhibition at 30 µg/mL is 10%. Also, the “Antiproliferative Assay Data Inhibition (%)” value with fibroblasts is reported as 12%.

On to `O=c1cc(-c2ccc(CO)cc2)oc(N2CCOCC2)c1` [Compound 17, 2-(4-(hydroxymethyl)phenyl)-6-(4-morpholinyl)-4H-pyran-4-one], for which, in assay [1], the inhibition at 10 µg/mL is 0% and the inhibition at 30 µg/mL was 0%. The “Antiproliferative Assay Data Inhibition (%)” value with fibroblasts turned out to be 20%.

For `O=c1cc(-c2cccc(O)c2)oc(N2CCOCC2)c1` [Compound 16, 2-(3-hydroxyphenyl)-6-(4-morpholinyl)-4H-pyran-4-one], in assay [1], the inhibition at 10 µg/mL is 5% and the inhibition at 30 µg/mL was 44%. For the same compound, in the assay with fibroblasts, the EC50 stood at 28.5 µM and the “Antiproliferative Assay Data Inhibition (%)” value was 73%.

Take `O=c1cc(-c2ccc(F)cc2)oc(N2CCOCC2)c1` [Compound 22, 2-(4-Fluorophenyl)-6-(4-morpholinyl)-4H-pyran-4-one]: in assay [1], the inhibition at 10 µg/mL worked out at 42% and the inhibition at 30 µg/mL was determined as 61%. Also, in the assay with fibroblasts, the 50% effective concentration (EC50) was above 20 µM and the “Antiproliferative Assay Data Inhibition (%)” value came to 25%.

As for `O=c1cc(-c2ccc(OCc3ccc4ccccc4n3)cc2)oc(N2CCOCC2)c1` [Compound 8, 2-(4-Morpholinyl)-6-(4-(2-quinolinylmethoxy)phenyl)-4H-pyran-4-one], in assay [1], the inhibition at 10 µg/mL came out at 35% and the inhibition at 30 µg/mL worked out at 35%. In the assay on fibroblasts, this compound registered a 50% effective concentration (EC50) of 6.8 µM.

In the case of `O=c1cc(-c2ccc(CN3CCCCC3CO)cc2)oc(N2CCOCC2)c1` (stereo not shown) [Compound 21, 2-(4-((2-(hydroxymethyl)-1-piperidinyl)methyl)phenyl)-6-(4-morpholinyl)-4H-pyran-4-one], in assay [1], the inhibition at 10 µg/mL came out at 10% and the inhibition at 30 µg/mL was determined as 10%. The “Antiproliferative Assay Data Inhibition (%)” value in the assay with fibroblasts turned out to be 13%.

For the compound `O=c1cc(-c2ccc(O)cc2)oc(N2CCOCC2)c1` [Compound 1, 2-(4-Hydroxyphenyl)-6-(4-morpholinyl)-4H-pyran-4-one], in assay [1], the inhibition at 10 µg/mL was found to be 75% and the inhibition at 30 µg/mL is 95%. In addition, in the assay on fibroblasts, the EC50 was determined as 29.4 µM and the “Antiproliferative Assay Data Inhibition (%)” value stood at 54%.

In the case of `Nc1ccc(-c2cc(=O)cc(N3CCOCC3)o2)cc1` [Compound 25, 2-(4-Aminophenyl)-6-(4-morpholinyl)-4H-pyran-4-one], in assay [1], the inhibition at 10 µg/mL was 45% and the inhibition at 30 µg/mL was 55%. The compound further came in with an EC50 in the assay with fibroblasts of 18.7 µM.

In the case of `O=c1cc(-c2ccc(N3CCCCC3)cc2)oc(N2CCOCC2)c1` [Compound 24, 2-(4-Morpholinyl)-6-4-(1-piperidinyl)phenyl-4H-pyran-4-one], in assay [1], the inhibition at 10 µg/mL turned out to be 10% and the inhibition at 30 µg/mL stood at 50%. Besides, a half-maximal effect in the assay on fibroblasts (EC50) was put at 0.48 µM.

On to `O=c1cc(-c2ccc(OCc3ccccn3)cc2)oc(N2CCOCC2)c1` [Compound 6, 2-(4-Morpholinyl)-6-(4-(2-pyridinylmethoxy)phenyl)-4H-pyran-one], for which, in assay [1], the inhibition at 10 µg/mL was found to be 25% and the inhibition at 30 µg/mL was 40%. Besides, in the assay with fibroblasts, the EC50 was 14.8 µM and the “Antiproliferative Assay Data Inhibition (%)” value stood at 72%.

For the compound `O=c1cc(CN2CCOCC2)oc(-c2ccc(OCc3ccccc3)cc2)c1` [Compound 12], in assay [1], the inhibition at 10 µg/mL came to 0% and the inhibition at 30 µg/mL was 0%. In addition, in the assay on fibroblasts, the EC50 is 41 µM and the “Antiproliferative Assay Data Inhibition (%)” value is 36%.

In the case of `CCCCC(Oc1ccc(-c2cc(=O)cc(N3CCOCC3)o2)cc1)c1ccccc1` (stereo not shown) [Compound 11, 2-(4-Morpholinyl)-6-(4-((1-phenylpentyl)oxy)phenyl)-4H-pyran-4-one], in assay [1], the inhibition at 10 µg/mL is 10% and the inhibition at 30 µg/mL was determined as 10%. This compound came in with a half-maximal effective concentration (EC50) in the assay on fibroblasts of 22.9 µM.

Consider `O=c1cc(-c2ccccc2)oc(N2CCOCC2)c1` [Compound 3, 2-(4-Morpholinyl)-6-phenyl-4H-pyran-4-one], for which, in assay [1], the inhibition at 10 µg/mL came out at 45% and the inhibition at 30 µg/mL came to 50%. Besides, the EC50 in the assay with fibroblasts worked out at 28 µM.

As to `O=c1cc(-c2ccccc2OCc2ccccc2)oc(N2CCOCC2)c1` [Compound 9, 2-(4-Morpholinyl)-6-(2-(phenylmethoxy)phenyl)-4H-pyran-4-one], in assay [1], the inhibition at 10 µg/mL came to 60% and the inhibition at 30 µg/mL is 65%. Moreover, in the assay with fibroblasts, the EC50 was 11.6 µM and the “Antiproliferative Assay Data Inhibition (%)” value was 88%.

With `O=c1cc(CN2CCCCC2)oc(-c2ccc(OCc3ccccc3)cc2)c1` [Compound 13], in assay [1], the inhibition at 10 µg/mL is 0% and the inhibition at 30 µg/mL is 0%. Besides, the “Antiproliferative Assay Data Inhibition (%)” value in the assay on fibroblasts is on record as 20%.

Turning to `O=c1cc(CN2CCOCC2)oc(-c2ccc(O)cc2)c1` [Compound 14, 2-(4-hydroxyphenyl)-6-(4-morpholinylmethyl)-4H-pyran-4-one], in assay [1], the inhibition at 10 µg/mL was 0% and the inhibition at 30 µg/mL stood at 0%. For the same compound, in the assay on fibroblasts, the “antiproliferation or inhibition activity (in words)” value is “no measurable antiproliferation or inhibition activity” and the “Antiproliferative Assay Data Inhibition (%)” value came out at 0%.

As to `O=c1cc(-c2ccc(OCc3ccccc3)cc2)oc(N2CCOCC2)c1` [Compound 2], in assay [1], the inhibition at 10 µg/mL was 10% and the inhibition at 30 µg/mL was found to be 15%. In the assay with fibroblasts, this compound yielded an EC50 of 6.9 µM.

`CC(C)(C)C(=O)COc1ccc(-c2cc(=O)cc(N3CCOCC3)o2)cc1` [Compound 4, 2-(4-(3,3-Dimethyl-2-oxobutoxy)phenyl)-6-(4-morpholinyl)-4H-pyran-4-one]: in assay [1], the inhibition at 10 µg/mL was 45% and the inhibition at 30 µg/mL was 60%. Also, in the assay on fibroblasts, a half-maximal effect (EC50) was put at 9.4 µM and the “Antiproliferative Assay Data Inhibition (%)” value amounted to 66%.

As to `O=c1cc(-c2ccc(OCc3cccnc3)cc2)oc(N2CCOCC2)c1` [Compound 5, 2-(4-Morpholinyl)-6-(4-(3-pyridinylmethoxy)phenyl)-4H-pyran-4-one], in assay [1], the inhibition at 10 µg/mL worked out at 40% and the inhibition at 30 µg/mL amounted to 55%. In the assay with fibroblasts, it took 11.2 µM to reach a half-maximal effect (EC50) and the “Antiproliferative Assay Data Inhibition (%)” value was determined as 77%.

On to `CN1CCN(Cc2ccc(-c3cc(=O)cc(N4CCOCC4)o3)cc2)CC1` [Compound 20, 2-(4-((4-methyl-1-piperazinyl)methyl)phenyl)-6-(4-morpholinyl)-4H-pyran-4-one], for which, in assay [1], the inhibition at 10 µg/mL was determined as 0% and the inhibition at 30 µg/mL stood at 20%. Also, the “Antiproliferative Assay Data Inhibition (%)” value in the assay on fibroblasts is reported as 9%.

Regarding `O=c1cc(-c2ccccc2O)oc(N2CCOCC2)c1` [Compound 10, 2-(2-Hydroxyphenyl)-6-(4-morpholinyl)-4H-pyran-4-one], in the assay on fibroblasts, the EC50 was determined as 62.2 µM and the “Antiproliferative Assay Data Inhibition (%)” value amounted to 34%.

For `O=c1cc(-c2ccc(CN3CCCCC3)cc2)oc(N2CCOCC2)c1` [Compound 18, 2-(4-morpholinyl)-6-(4-(1-piperidinylmethyl)phenyl)-4H-pyran-4-one], in assay [1], the inhibition at 10 µg/mL was found to be 10% and the inhibition at 30 µg/mL was 18%. Moreover, in the assay on fibroblasts, the “Antiproliferative Assay Data Inhibition (%)” value was determined as 8%.

For `O=c1cc(-c2cccc(OCc3ccccc3)c2)oc(N2CCOCC2)c1` [Compound 15, 2-(4-morpholinyl)-6-(3-(phenylmethoxy)phenyl)-4H-pyran-4-one], in assay [1], the inhibition at 10 µg/mL came to 0% and the inhibition at 30 µg/mL was found to be 0%. Besides, in the assay with fibroblasts, the EC50 was found to be 9.1 µM and the “Antiproliferative Assay Data Inhibition (%)” value is reported as 96%.

With `O=c1cc(-c2ccc(OCCN3CCCCC3)cc2)oc(N2CCOCC2)c1` [Compound 7, 2-(4-Morpholinyl)-6-((4-(2-(1-piperidinyl)ethyl)oxy)phenyl)-4H-pyran-4-one], in assay [1], the inhibition at 10 µg/mL stood at 60% and the inhibition at 30 µg/mL came to 70%. In addition, in the assay with fibroblasts, the EC50 is above 31.2 µM and the “Antiproliferative Assay Data Inhibition (%)” value is 30%.
